Results reported in US6274715A, “Tricyclic erythromycin derivatives” (priority 1997, dated 2001).
≈ marks a conversion by molar mass, not a printed value.

Columns and labels:
Assay type in all cases: cell-based
[1] = tested on: STAPHYLOCOCCUS AUREUS ATCC 6538P; test: In vitro antibacterial activity, MIC, BHI agar dilution; conditions: S. aureus ATCC 6538P, 35-37° C., 20 to 24 hours, unit assumed
[2] = tested on: STAPHYLOCOCCUS AUREUS A5177; test: as above; conditions: S. aureus A5177, unit assumed
[3] = tested on: STAPHYLOCOCCUS AUREUS A-5278; test: as above; conditions: S. aureus A-5278, unit assumed
[4] = tested on: STAPHYLOCOCCUS AUREUS CMX 642A; test: as above; conditions: S. aureus CMX 642A, unit assumed
[5] = tested on: STAPHYLOCOCCUS AUREUS NCTC10649M; test: as above; conditions: S. aureus NCTC10649M, unit assumed
[6] = tested on: STAPHYLOCOCCUS AUREUS CMX 553; test: as above; conditions: S. aureus CMX 553, unit assumed
[7] = tested on: STAPHYLOCOCCUS AUREUS 1775; test: as above; conditions: S. aureus 1775, unit assumed
[8] = tested on: STAPHYLOCOCCUS EPIDERMIDIS 3519; conditions: S. epidermidis 3519; BHI agar; unit assumed
[9] = tested on: EN[…] ATCC 8043; test: In vitro antibacterial activity, MIC, BHI agar dilution; conditions: E. faecium ATCC 8043, unit assumed
Procedure, shortened: (§1)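 MIC was read visually as the lowest drug level with no growth, a slight haze or sparsely isolated colonies relative to a compound-free growth control. Organisms were spotted at 1:100 dilution (1:10 for slow-growing strains) onto Brain Heart Infusion agar containing serial compound dilutions and incubated 20 to 24 hours at 35-37° C.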

[10] = tested on: M[…] ATCC 4698; test: as above; conditions: M. luteus ATCC 4698, unit assumed
Procedure, shortened: as §1

[11] = tested on: M[…] ATCC 9341; test: as above; conditions: M. luteus ATCC 9341, unit assumed
Procedure, shortened: as §1

[12] = tested on: STR[…] 508; test: as above; conditions: S. agalactiae CMX 508, unit assumed
Procedure, shortened: as §1

[13] = tested on: STREPTOCOCCUS BOVIS A-5169; test: as above; conditions: S. bovis A-5169, unit assumed
[14] = tested on: STREPTOCOCCUS PYOGENES EES61; test: as above; conditions: S. pyogenes EES61, unit assumed
[15] = tested on: STREPTOCOCCUS PYOGENES 930; test: as above; conditions: S. pyogenes 930, unit assumed
[16] = tested on: STREPTOCOCCUS PYOGENES PIU 2548; test: as above; conditions: S. pyogenes PIU 2548, unit assumed
[17] = tested on: ESCHERICHIA COLI JUHL; conditions: E. coli JUHL; BHI agar; unit assumed
[18] = tested on: ESCHERICHIA COLI SS; test: In vitro antibacterial activity, MIC, BHI agar dilution; conditions: E. coli SS, unit assumed
[19] = tested on: ESCHERICHIA COLI DC-2; test: as above; conditions: E. coli DC-2, unit assumed
[20] = tested on: ESCHERICHIA COLI H560; test: as above; conditions: E. coli H560, unit assumed
[21] = tested on: ESCHERICHIA COLI KNK 437; conditions: E. coli KNK 437; BHI agar; unit assumed
[22] = tested on: ENTEROBACTER AEROGENES ATCC 13048; test: In vitro antibacterial activity, MIC, BHI agar dilution; conditions: E. aerogenes ATCC 13048, unit assumed
[23] = tested on: KLEBSIELLA PNEUMONIAE ATCC 8045; test: as above; conditions: K. pneumoniae ATCC 8045, unit assumed
[24] = tested on: PROVIDENCIA STUARTII CMX 640; conditions: P. stuartii CMX 640; BHI agar; unit assumed
[25] = tested on: PSEUDOMONAS AERUGINOSA BMH10; test: In vitro antibacterial activity, MIC, BHI agar dilution; conditions: P. aeruginosa BMH10, unit assumed
[26] = tested on: PSEUDOMONAS AERUGINOSA 5007; test: as above; conditions: P. aeruginosa 5007, unit assumed
[27] = tested on: PSEUDOMONAS AERUGINOSA K799/WT; test: as above; conditions: P. aeruginosa K799/WT, unit assumed
[28] = tested on: PSEUDOMONAS AERUGINOSA K799/61; test: as above; conditions: P. aeruginosa K799/61, unit assumed
[29] = tested on: PSEUDOMONAS CEPACIA 296I; test: as above; conditions: P. cepacia 296I, unit assumed
[30] = tested on: PSEUDOMONAS AERUGINOSA DPHD-5263; test: as above; conditions: P. aeruginosa DPHD-5263, unit assumed
[31] = tested on: PSEUDOMONAS AERUGINOSA DPHD-2862; test: as above; conditions: P. aeruginosa DPHD-2862, unit assumed
[32] = tested on: CANDIDA ALBICANS CCH 442; test: as above; conditions: C. albicans CCH 442, unit assumed
[33] = tested on: MYCOBACTERIUM SMEGMATIS ATCC 114; test: as above; conditions: M. smegmatis ATCC 114, unit assumed

Compound | MIC [1] | MIC [2] | MIC [3] | MIC [4] | MIC [5] | MIC [6] | MIC [7] | MIC [8] | MIC [9] | MIC [10] | MIC [11] | MIC [12] | MIC [13] | MIC [14] | MIC [15] | MIC [16] | MIC [17] | MIC [18] | MIC [19] | MIC [20] | further results
CC[C@H]1OC(=O)[C@H](C)C(=O)[C@H](C)[C@@H](O[C@@H]2O[C@H](C)C[C@H](N(C)C)[C@H]2O)[C@](C)(OC)C[C@@H](C)C2=NC3CN(C=O)CC3N3C(=O)O[C@@]1(C)[C@H]3[C@H]2C (stereo partly drawn) [Example 124] | 0.78 µg/mL (≈ 1.1 µM) | 1.56 µg/mL (≈ 2.21 µM) | > 100 µg/mL | 0.78 µg/mL (≈ 1.1 µM) | 0.78 µg/mL (≈ 1.1 µM) | 0.78 µg/mL (≈ 1.1 µM) | > 100 µg/mL | 3.1 µg/mL (≈ 4.39 µM) | 0.2 µg/mL (≈ 0.283 µM) | 0.39 µg/mL (≈ 0.552 µM) | 0.1 µg/mL (≈ 0.141 µM) | 0.1 µg/mL (≈ 0.141 µM) | 0.05 µg/mL (≈ 0.0707 µM) | 0.02 µg/mL (≈ 0.0283 µM) | > 100 µg/mL | 3.1 µg/mL (≈ 4.39 µM) | 100 µg/mL (≈ 141 µM) | 0.78 µg/mL (≈ 1.1 µM) | 100 µg/mL (≈ 141 µM) | 50 µg/mL (≈ 70.7 µM) | MIC [21]: 100 µg/mL (≈ 141 µM); MIC [22]: > 100 µg/mL; MIC [23]: > 100 µg/mL; MIC [24]: > 100 µg/mL; MIC [25]: > 100 µg/mL; MIC [26]: > 100 µg/mL; MIC [27]: 100 µg/mL (≈ 141 µM); MIC [28]: 0.78 µg/mL (≈ 1.1 µM); MIC [29]: > 100 µg/mL; MIC [30]: > 100 µg/mL; MIC [31]: > 100 µg/mL; MIC [32]: > 100 µg/mL; MIC [33]: 25 µg/mL (≈ 35.4 µM)
CC[C@H]1OC(=O)[C@H](C)C(=O)[C@H](C)[C@@H](O[C@@H]2O[C@H](C)C[C@H](N(C)C)[C@H]2O)[C@](C)(OC)C[C@@H](C)C2=NC3CN(CC(OC)OC)CC3N3C(=O)O[C@@]1(C)[C@H]3[C@H]2C (stereo partly drawn) [Example 127] | 3.1 µg/mL (≈ 4.04 µM) | 1.56 µg/mL (≈ 2.03 µM) | > 100 µg/mL | 3.1 µg/mL (≈ 4.04 µM) | 1.56 µg/mL (≈ 2.03 µM) | 1.56 µg/mL (≈ 2.03 µM) | > 100 µg/mL | 1.56 µg/mL (≈ 2.03 µM) | 0.39 µg/mL (≈ 0.508 µM) | 1.56 µg/mL (≈ 2.03 µM) | 0.39 µg/mL (≈ 0.508 µM) | 0.2 µg/mL (≈ 0.261 µM) | 0.1 µg/mL (≈ 0.13 µM) | 0.1 µg/mL (≈ 0.13 µM) | > 100 µg/mL | 1.56 µg/mL (≈ 2.03 µM) | > 100 µg/mL | 1.56 µg/mL (≈ 2.03 µM) | > 100 µg/mL | > 100 µg/mL | MIC [21]: > 100 µg/mL; MIC [22]: > 100 µg/mL; MIC [23]: > 100 µg/mL; MIC [24]: > 100 µg/mL; MIC [25]: > 100 µg/mL; MIC [26]: > 100 µg/mL; MIC [27]: > 100 µg/mL; MIC [28]: 3.1 µg/mL (≈ 4.04 µM); MIC [29]: > 100 µg/mL; MIC [30]: > 100 µg/mL; MIC [31]: > 100 µg/mL; MIC [32]: > 100 µg/mL; MIC [33]: 25 µg/mL (≈ 32.6 µM)
